Laboratory results reported in patent publication US9910031B2, “Compositions and methods for modulating c-Rel-dependent cytokine production” (Synta Pharmaceuticals Corporation, priority 2003, dated 2018).

System: PU-1
Test: Western blot of PU-1 in THP-1 nuclear extracts (Ets-2 DNA element beads)
Format: cell-based, human
Source text: Of the transcription factors that have been analyzed, two factors, ICSBP and c-Rel, seem to be affected by Compound 1/Compound 2 treatment. ICSBP binds indirectly to the Ets-2 site. The primary NFκB trans-activator for IL-12 is the c-Rel/p50 heterodimer. Other dimers (p65/p50 and p50/p50) either lack activity or have inhibitory functions. Thus, c-Rel plays a role in IL-12 transcription as a result of both activation through NFκB and its interaction with ICSBP. […] The membranes were blocked with 5% milk in TBST buffer and then incubated with anti-c-Rel, anti-p65, anti-p50, anti-ICSBP or anti-PU-1 antibody (all the antibodies were purchased from Santa Cruz) at a dilution of 1:500 for 1 h at room temperature or overnight at 4° C. The membranes were washed and incubated with Horseradish Peroxidase-conjugated anti-rabbit IgG or anti-mouse IgG (Amersham, England) at a dilution of 1:2000 at room temperature for 1 h.
The transcription factor ICSBP binds to the Ets-2 element indirectly through binding to PU-1. Nuclear extracts were bound to Ets-2 DNA element beads, the beads isolated to separate bound from free protein, and the proteins analyzed on Western blots using antibodies to either ICSBP or PU-1. […] Eluted materials were separated by 10% SDS-PAGE and detected by immunoblot analysis using anti-ICSBP or anti-PU-1 antibody.

SMILES: C(=NNc1nc(OCCc2ccccn2)nc(N2CCOCC2)n1)c1c[nH]c2ccccc12 [Compound 1, N-(1H-indol-3-ylmethylene)-N′-[4-morpholin-4-yl-6-(2-pyridin-2-yl-ethoxy)-[1,3,5]triazin-2-yl]-hydrazine]
- levels of PU-1 (FIG. 6): unaffected
